The values below come from US5874471A, “Orthomolecular medical use of L-citrulline for vasoprotection, relaxative smooth muscle tone and cell protection” (priority 1997, dated 1999).

The Km is the concentration of substrate that gives half-maximal velocity.

Like-named read-outs stand apart in the source and are kept apart here.

In data set [1] the test system is rabbit model of angioplasty. The note with it: L-arginine hydrochloride 2.25% in drinking water; cited from earlier work.
Data set [2] deals with cortical spreading depression. The note with it: rat, in vivo; cited from earlier work.
The subject of data set [3] is spermatocytes of infertile men. As to conditions: 4 to 20 grams of arginine daily, oral; cited from earlier work.
The conditions of data set [4]: cited from earlier work.
Data set [5] deals with experimental diabetes mellitus. As to conditions: long-term oral administration in marked amounts; cited from earlier work.
For data set [6] the following is noted: rat; cited from earlier work.
Data set [7] deals with hypercholesterolemic rabbit models. As to conditions: sixfold enrichment of dietary L-arginine; cited from earlier work.
The conditions of data set [8]: parenteral injection, rats; cited from earlier work.
A further data set deals with apoptosis. The note with it: L-arginine-deficient (10 μM) environment; cited from earlier work.
Data set [9] deals with human semen specimens with low motility. As to conditions: between 1.0 and 4.0 mM, in vitro; cited from earlier work.
The test system of a further data set is human platelets. As to conditions: cited from earlier work; for inhibition of L-arginine uptake into platelets: 300 μM extracellular concentration, L-arginine 30 μM.
Data set [10] concerns uterine muscle strips from gravid rats. As to conditions: L-arginine added to extracellular fluid; cited from earlier work.
Another data set has as its system activated c-NOS. As to conditions: plasma L-arginine above normal fasting 75 to 90 μM; cited from earlier work.
Data set [11] deals with renal vasodilatory responses. As to conditions: aged compared to young hypertensives; cited from earlier work.
Data set [12] has as its system endothelium-dependent vasodilation. As to conditions: L-arginine infusion, humans with hypercholesterolemia; cited from earlier work.
The subject of a further data set is migraine pains. Put plainly: Migraine pain with oral L-citrulline. Type of data set: in vivo, human. As to the method: […] Their body weight was 59 kg. The subject gave a history of migraine pains with and without aura for about 15 years. Currently, the migraine pains were recurring about once to a few times weekly. Their parent had experienced migraine headaches for many years.
Shortly after the onset of a severe headache attack, the subject ingested 2.7 grams of L-citrulline, followed by another 2.7 grams about 1 hour later.
(§1) Subsequently, the person cited in Example 4 followed an oral regimen of 3.6 grams of L-citrulline daily in two subdoses of 1.8 grams (morning and evening) for seven weeks. The frequency and intensity of the migraine pain episodes were reduced over this interval.

Data set [13] is described as follows: Tolerability of oral L-citrulline (symptoms, blood count, serum chemistry). Type of data set: in vivo, human.
Source text: as §1
(§2) The subject cited in Example 1 and Example 2 above subsequently undertook oral supplementation with 4.5 grams of L-citrulline daily in 2 divided doses (morning and nightly) of 1.8 grams (in 2 capsules) and 2.7 grams (in 3 capsules) for 4 months. They continued their usual food intake. At the end of the 4-month period of supplementation with 4.5 grams daily, […] 9-hour overnight fasting plasma concentration of L-arginine measured at 102.3 μM, assayed in plasma within 30 minutes of venous blood sampling. This increased fasting plasma level contrasted from their lower normal fasting values of 83.0±1.1 μM measured months before, an increment about 20 μM greater.
(§3) The apparent nootropic effects from oral intake of L-citrulline are consistent with the inventive beneficial effects of L-citrulline as exogenous precursor in order to improve brain functions that may be mediated by enhanced L-arginine, creatine, and phosphocreatine stores within the central nervous system.

Data set [14] in a line: Plasma ultrafiltrate L-arginine level after oral L-citrulline (colorimetric assay). Type of data set: in vivo, human. How it is done: The one FIGURE contains graphs of plasma ultrafiltrate levels of L-arginine in the fasting state (9-10 hours) related to the daily amounts of L-citrulline ingested in two divided doses. Also depicted are levels 2-hours after ingestion of morning doses of L-citmulline (EXAMPLE 1).
A novel colorimetric method for the quantitative assay of free L-arginine in blood plasma was developed. The method measures the color product from monosubstituted guanidines without and with L-arginase incubation to destroy the arginine and the potential guanido color product that would be derived from L-arginine. The photometric decrease in guanido color product measures specifically the concentration of L-arginine. The L-arginine methodology was applied to ultrafiltrates of blood plasma after ultrafiltrations of separated plasma samples were done at 4° Celsius.
Blood plasma levels after 9 to 10 hours of overnight fasting averaged 83.0±1.1 μM (mean±SD of 3 determinations). Two hours after ingestion of 3.0 grams of L-citrulline in capsular form, plasma L-arginine level rose by […] to 132.7 μM. Overnight fasting plasma levels of L-arginine measured 125.2, 98.1, 90.8, 114.2, and 120.0 μM after ingestion of L-citrulline for 6 days at 6.0 grams, for 13 days at 2.4 grams, for 6 days at 3.4 grams, for 7 days at 6.8 grams, and for 2 days at 8.5 grams, respectively, in 2 divided doses (morning and nightly).
as §2

Data set [15] is described as follows: Total forearm bleeding time during oral L-citrulline. Type of data set: in vivo, human. How it is done:
The same subject that was studied in Example 1 was studied by total bleeding time determinations before and during ingestion of daily doses of L-citrulline, in two divided subdoses. Forearm bleeding times were done by 3 to 5 mm cuts about 1 mm deep made perpendicular to the fold of the elbow during template methodology and a sphygmomanometer cuff maintained near 40 mm Hg pressure. Control bleeding times were 51/2 minutes. Bleeding time rose to 131/2 minutes after 2 days of ingestion of 8.5 grams daily. Bleeding time was prolonged at 13 minutes after 4 weeks of ingestion of 5.4 grams of L-citrulline daily in 2 divided doses.

The next data set has as its system brain functions. Put plainly: Mental alertness, intellectual performance and mental fatigue on L-citrulline. As to conditions: 4.5 grams daily, 4 months. Type of data set: in vivo, human. As to the method:
as §2, §3

The conditions of data set [16]: in vivo; cited from earlier work.
In the next data set the test system is lacunar infarction. Put plainly: Recurrence of symptomatic lacunar infarction on daily citrulline. The note with it: 4.5 grams daily in two subdoses for many months. Type of data set: in vivo, human. The text has this: Aspirin in small daily doses is commonly recommended as antiplatelet and antithrombotic agent in cardiovascular disease, particularly for the secondary prevention of coronary artery thrombosis and myocardial infarction, and for cerebrovascular ischemic manifestations such as lacunar infarctions. This subject had experienced, five-years earlier, an acute episodic event of symptomatic lacunar infarction with virtual recovery.

For data set [17] the following is noted: rat, in vivo; cited from earlier work.
The test system of a further data set is migraine aura. As to conditions: inhalation of small amounts, some cases; cited from earlier work.
The test system of another data set is platelet activity. The note with it: cited from earlier work; for total bleeding time: low-dose / small therapeutic doses orally, humans.
The next data set concerns osteoporosis. The note with it: oral supplements in large amounts; cited from earlier work.
The next data set deals with hippocampal brain tissue. The note with it: extracellular creatine increased by 3 mM; cited from earlier work.
The next data set has as its system muscle fatigue. The note with it: oral daily supplementation, healthy humans; cited from earlier work.
[18] abbreviates: 4-month regimen of 4.5 grams daily.

Turning to `Cl.N=C(N)NCCC[C@H](N)C(=O)O` [L-arginine hydrochloride], in data set [1], the arterial thickening result was “reduced thickening”, the “increase of plasma arginine levels” value is given as “about 2.6 times” and the “neoendothelium-dependent arterial muscle relaxation” value was “enhanced neoendothelium-dependent arterial muscle relaxation”.

Consider `N=C(N)NCCC[C@H](N)C(=O)O` [L-arginine], for which the “oligemic vasoconstriction following cortical spreading depression” value in [2] is on record as “reduces the oligemic vasoconstriction”. In [3], the “total sperm counts and motility rates” value was “may improve total sperm counts and motility rates”. Also, the “time to return to near fasting values” in data set [4] (24.8 grams L-arginine, normal adults) was 3 h. Moreover, the “peak plasma arginine relative to fasting values” in [4] (24.8 grams L-arginine, fasting 90±6 μM) is listed as “about 3.6 times”. For the same compound, in [4] (oral 3-gram single doses of arginine, healthy humans), the plasma citrulline levels result is “without a change in plasma citrulline levels”. The plasma arginine levels entry in data set [4] (oral 3-gram single doses, healthy humans) is reported as “raises plasma arginine levels acutely”. For the same compound, the “time of peak plasma arginine” value in [4] (single protein meal of about 30 to 50 grams (about 1 to 2 grams arginine)) is 2 to 3 h. Further, the “time to return to near fasting levels” value in data set [4] (single protein meal of about 30 to 50 grams) is 5 to 6 h. Also, in [5], the “glomerular hyperfiltration and abnormal filtration fraction hemodynamics” value is “prevents the glomerular hyperfiltration”; the proteinuria result was “ameliorates the proteinuria”. The “brain tissue arginine level relative to plasma levels” value in data set [6] was 20 to 30%. Also, in data set [7], the “endothelial adhesiveness and atherogenesis” value was “markedly inhibits endothelial adhesiveness and atherogenesis”; the “increase in plasma arginine levels” value is on record as “twofold increase”; the nitric oxide-dependent vasodilation entry is listed as “improves nitric oxide-dependent vasodilation”. For the same compound, the “time for plasma and tissue concentrations to return to normal” value in data set [8] was 2 to 3 h. Besides, the protection from apoptosis result in the data set on apoptosis was “protects cells from apoptosis”. Also, in data set [9], the sperm motility entry is “enhances sperm motility in a concentration-dependent manner”. For the same compound, in the data set on human platelets (read-out: apparent Km for uptake into human platelets), the Km was 26 ± 4 µM. Further, the “muscle relaxation and quiescence” value in data set [10] is “dose-dependent muscle relaxation, and muscle quiescence”. In the data set on activated c-NOS, the “endothelial nitric oxide production” value is “augments endothelial nitric oxide production”. Moreover, the renal vasodilatory responses result in data set [11] is reported as “blunted in aged compared to young hypertensives”. Besides, the impaired endothelium-dependent vasodilation entry in [12] was “corrected”.

With `NC(=O)NCCC[C@H](N)C(=O)O` [L-citrulline], in the data set on migraine pains (2.7 grams at onset plus 2.7 grams about 1 hour later), the “migraine pain intensity and duration” value was “markedly lessened in intensity and in duration”. Moreover, the “nausea during migraine attack” value in the data set on migraine pains (2.7 grams plus 2.7 grams about 1 hour later) is given as “Much less nausea”. Moreover, the “frequency and intensity of migraine pain episodes” value in the data set with migraine pains (3.6 grams daily in two subdoses, seven weeks) was “reduced”. Also, the adverse side-effects result in [13] (3.6 grams daily for seven weeks, person) was “No adverse side-effects”. In data set [13] (setting [18]), the adverse symptoms entry is recorded as “No adverse symptoms”; the “complete blood count and blood serum chemistry tests” value is recorded as “remained normal”. For the same compound, the “adverse symptoms or untoward signs” value in [13] (Example 1 study, several weeks) is given as “No adverse symptoms or untoward signs”. The “increment in fasting plasma L-arginine” value in data set [14] (4 months at 4.5 grams daily vs 83.0±1.1 μM before) was “about 20 μM”. Besides, the “metabolic adaptation to long-continued supplementation” value in [14] (4 months, 4.5 grams daily) is “no significant metabolic adaptation”. Besides, the “elevation of plasma L-arginine versus equivalent L-arginine or protein meals” value in data set [14] (comparison with literature) was “more efficient and longer lasting”. The “blood plasma levels of L-arginine after overnight fasting (general statement)” value in data set [14] (daily dosage in two divided subdoses, 9 to 10 hours fasting) is given as “greater blood plasma levels of L-arginine even after overnight fasting”. For the same compound, the “blood plasma concentrations of free L-arginine (general statement)” value in data set [14] (single oral doses of 3.0 grams or more in capsules) was “promptly raised to much higher levels”. Moreover, the “plasma L-arginine level rise” value in data set [14] (two hours after 3.0 grams L-citrulline in capsules, person, 102 kg, fasting 83.0±1.1 μM before) is 62.4%. Moreover, the bleeding time in [15] (after 2 days of 8.5 grams daily, control 51/2 minutes) is 131/2. Moreover, the “prolongation of total bleeding time” value in [15] (daily doses of 5.4 grams to 8.5 grams) is “about two-fold”. In the data set with brain functions, the “mental alertness and intellectual performance” value is reported as “enhanced”; the mental fatigue entry is listed as “less mental fatigue”. For the same compound, the blood-brain barrier passage entry in [16] is listed as “readily passes the blood-brain barrier”. For the same compound, the “recurrence of lacunar infarction” value in the data set with lacunar infarction was “No manifestations of recurrence”. Moreover, the “liver uptake in portal venous blood” value in data set [17] is reported as “Without appreciable liver uptake”.

With `NC(=O)CC[C@H](N)C(=O)O` [L-glutamine], in the data set with human platelets, the “inhibition of L-arginine uptake into platelets” value (“inhibition” for short) was “inhibitory”.

Turning to `NCCCC[C@H](N)C(=O)O` [L-lysine], the “inhibition” value in the data set with human platelets was “inhibitory”.

In the case of `NCCC[C@H](N)C(=O)O` [L-ornithine], the “inhibition” value in the data set with human platelets is “inhibitory”.

Take `CCCCCON=O` [amyl nitrite]: in the data set with migraine aura, the migraine aura result was “temporarily reversed migraine aura in some cases”.

Consider `CC(=O)Oc1ccccc1C(=O)O` [aspirin, acetylsalicylic acid], for which the total bleeding time result in the data set with platelet activity is recorded as “prolonged”; with platelet activity (listed as acetylsalicylic acid (aspirin)), “prolongs the total bleeding time”. For the same compound, the platelet activity result in the data set with platelet activity (low-dose intake in humans) is “inhibits platelet activity”.

For the compound `O=C(O)O` [calcium carbonate], the “skeletal bone loss in osteoporosis” value with osteoporosis is “decreased the skeletal bone loss”.

Turning to `CN(CC(=O)O)C(=N)N` [creatine], in the data set on hippocampal brain tissue, the ATP levels entry is on record as “without change in ATP levels”; the anoxia-induced neuronal damage entry is recorded as “attenuated”; the “neurocyte viability after anoxic periods” value is “greater neurocyte viabilities”; the “neuronal free creatine and phosphocreatine levels” value was “large increases”. In the data set with muscle fatigue, the “muscle fatigue with physical exercise” value was “lessened muscle fatigue”; the “muscle stores of free creatine and phosphocreatine” value is on record as “greater muscle stores”.
